Laboratory results taken from patent US9834823B2, “Primers, assays and methods for detecting an E. coli subtype” (priority 2012, dated 2017).
“And” between values parts separate entries of the source, which are not always exact repeats. Identical values can stand only once.

Assays:
Assay type in all cases: cell-based
[1] = tested on: extraintestinal Escherichia coli isolates; assay: Antimicrobial susceptibility testing (CLSI breakpoints), Olmsted County isolates
[2] = tested on: Escherichia coli clinical isolates from U.S. veterans; assay: Susceptibility testing (broth microdilution or disk diffusion) at VAMCs with population back-calculations
[3] = tested on: Escherichia coli clinical isolates (ESBL-positive and ESBL-negative; ST131 subclones); assay: Broth microdilution antimicrobial susceptibility, NorthShore ESBL case-control isolates
Excerpt: As reported elsewhere, the 267 E. coli study isolates were collected between 2007 and 2010 as part of a prospective case-control study conducted at NorthShore University HealthSystem (Banerjee, R J et al. “Predictors and molecular epidemiology of community-onset extended-spectrum beta-lactamase (ESBL) Escherichia coli infection in a Midwestern community,” 2013 Infect Control Hosp Epidemiol; in press). Cases were defined as adults with ESBL-producing E. coli cultured from any specimen type. Controls were defined as the 1 or 2 patients with non-ESBL E. coli isolates identified just subsequent to the case isolate, and with the same specimen type and location of collection. Isolates obtained in the outpatient setting or within 48 hours of hospital admission were considered causes of community-associated infection. Further study details are as described (Banerjee, R J et al. “Predictors and molecular epidemiology of community-onset extended-spectrum beta-lactamase (ESBL) Escherichia coli infection in a Midwestern community,” 2013 Infect Control Hosp Epidemiol; in press).
The resistance score was the total number of agents to which an isolate was resistant. This study was approved by the NorthShore and VA Medical Center institutional review boards.

## trimethoprim-sulfamethoxazole [TMP/SMX]
[1]; All isolates, N = 299
  No. of resistant isolates (column %): 88 (29)
[1]; H30 ST131 subclone, N = 70
  Resistance prevalence among H30 ST131: 47%
[1]; Other STs, N = 129
  No. of resistant isolates (column %): 37 (29)
[1]; ST9, N = 32
  No. of resistant isolates (column %): 2 (6)
[1]; ST69, N = 15
  No. of resistant isolates (column %): 8 (53)
[1]; ST69 isolates
  Prevalence of resistance, ST69: 53%
[1]; ST73, N = 25
  No. of resistant isolates (column %): 3 (12)
[1]; ST127, N = 18
  No. of resistant isolates (column %): 1 (6)
[1]; ST131, N = 80
  No. of resistant isolates (column %): 37 (46)
[1]; ST131 isolates
  Prevalence of resistance, ST131: 46%
[1]; non-H30 ST131, N = 10
  Resistance prevalence among non-H30 ST131: 40%
[2]; H30 ST131 subclone isolates (H30 subclone vs. others)
  Prevalence of resistance, H30 ST131: 47
[2]; ST131 isolates (ST131 vs. others)
  Prevalence of resistance, ST131: 42
[2]; all isolates
  Prevalence of resistance, Total (%): 22%
[2]; all non-H30 isolates (H30 subclone vs. others)
  Prevalence of resistance, Others (%): 14%
[2]; all non-ST131 isolates (ST131 vs. others)
  Prevalence of resistance, Others (%): 13%
[2]; back-calculations, listed as TMP-SMZ
  ST131's overall contribution to antimicrobial resistance within the source E. coli population: > 50% and 56%
[2]; fraction of resistance phenotype due to ST131
  Estimated fraction due to ST131: .56
[2]; resistance phenotype, back-calculated with 29% FQ resistance
  Overall prevalence in population, %: 22%
[2]; resistance prevalence among H30 ST131 subclone isolates relative to all other isolates
  Prevalence ratio of resistance: 3.3
[2]; resistance prevalence among ST131 isolates relative to all other isolates
  Prevalence ratio of resistance: 2.4
[3]; ESBL-negative isolates, All N = 167
  No. resistant (column %): 31 (19)
[3]; ESBL-negative isolates, Non-ST131 N = 145
  No. resistant (column %): 18 (12)
[3]; ESBL-negative isolates, ST131 N = 22
  No. resistant (column %): 13 (59)
[3]; ESBL-positive isolates, All N = 100
  No. resistant (column %): 63 (63)
[3]; ESBL-positive isolates, Non-ST131 N = 51
  No. resistant (column %): 39 (76)
[3]; ESBL-positive isolates, ST131 N = 49
  No. resistant (column %): 24 (49)
[3]; H30-Rx subclone isolates (N = 47) within the H30 ST131 subclone
  No. of resistant isolates (column %), H30-Rx (N = 47): 21 (45) No. (column %)
[3]; H30 non-Rx isolates (N = 15) within the H30 ST131 subclone
  No. of resistant isolates (column %), H30, non-Rx (N = 15): 10 (67) No. (column %)
[3]; H30 subclone isolates (N = 62) among 71 E. coli ST131 isolates
  No. of resistant isolates (column %), H30 (N = 62): 31 (50) No. (column %)
[3]; non-H30 isolates (N = 9) among 71 E. coli ST131 isolates
  No. of resistant isolates (column %), Non-H30 (N = 9): 6 (67) No. (column %)
